Assay results: article PMC12951562, “SH2scan: Mapping SH2 Domain-Ligand Binding Selectivity for Inhibitors and Degraders” (Journal of Medicinal Chemistry, 2026)
Read-outs that look alike come from different tables or passages of the source. Non-standard residues stand in square brackets, D forms with d. Residues, ends and D or L forms follow the SMILES beside them. pY = N[C@@H](Cc1ccc(OP(=O)(O)O)cc1)C(=O)O

Experiments:
Experiment in all cases: biochemical
Assay type in all cases: binding
[1] = biological target: T1, CSK (Homo sapiens, UniProt P41240); conditions: primary screen, 10 μM
T1 construct: the DNA-tagged SH2 domain concentrations used in this study were <0.1 nM; made in house; host or cells: HEK293 (transient transfection; unpurified extract)
T1 sequence (P41240 82-171 limits assumed): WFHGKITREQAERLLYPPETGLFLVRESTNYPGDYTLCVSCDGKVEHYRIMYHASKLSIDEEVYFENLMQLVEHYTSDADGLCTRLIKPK

[2] = biological target: T2, SH3BP2 (Homo sapiens, UniProt P78314); conditions: for remaining activity at 10 µM: read-out: percent of DMSO vehicle control
T2 construct: made in house; host or cells: HEK293 (transient transfection), unpurified extract
T2 sequence (P78314 1-561): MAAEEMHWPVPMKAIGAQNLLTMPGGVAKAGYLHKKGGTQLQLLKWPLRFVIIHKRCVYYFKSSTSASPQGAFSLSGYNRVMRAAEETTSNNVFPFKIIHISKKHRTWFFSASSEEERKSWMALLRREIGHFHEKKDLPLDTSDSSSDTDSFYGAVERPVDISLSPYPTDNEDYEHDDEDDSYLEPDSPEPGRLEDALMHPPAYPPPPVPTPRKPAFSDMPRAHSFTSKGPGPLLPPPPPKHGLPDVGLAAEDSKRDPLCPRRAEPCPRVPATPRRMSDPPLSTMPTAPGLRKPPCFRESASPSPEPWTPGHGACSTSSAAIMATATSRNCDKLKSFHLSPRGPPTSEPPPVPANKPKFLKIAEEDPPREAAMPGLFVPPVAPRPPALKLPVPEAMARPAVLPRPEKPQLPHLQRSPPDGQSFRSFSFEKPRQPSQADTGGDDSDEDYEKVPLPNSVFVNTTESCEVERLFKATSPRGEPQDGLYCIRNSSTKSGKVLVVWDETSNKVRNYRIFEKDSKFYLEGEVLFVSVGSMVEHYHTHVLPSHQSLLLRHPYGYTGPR

[3] = biological target: T3, SOCS1 (Homo sapiens, UniProt O15524); conditions: for remaining activity at 10 µM: read-out: percent of DMSO vehicle control
T3 construct: made in house; host or cells: HEK293 (transient transfection), unpurified extract
T3 sequence (O15524 1-211): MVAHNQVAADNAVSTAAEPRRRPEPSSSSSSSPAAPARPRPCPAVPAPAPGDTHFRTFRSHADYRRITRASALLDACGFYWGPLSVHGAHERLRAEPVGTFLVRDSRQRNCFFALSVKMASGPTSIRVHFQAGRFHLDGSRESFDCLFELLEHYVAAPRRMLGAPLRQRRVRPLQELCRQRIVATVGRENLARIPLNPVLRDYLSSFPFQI

[4] = biological target: T4, CBLC (Homo sapiens, UniProt Q9ULV8)
T4 construct: the DNA-tagged SH2 domain concentrations used in this study were <0.1 nM; made in house; host or cells: HEK293 (transient transfection; unpurified extract)
T4 sequence (Q9ULV8 219-321 limits assumed): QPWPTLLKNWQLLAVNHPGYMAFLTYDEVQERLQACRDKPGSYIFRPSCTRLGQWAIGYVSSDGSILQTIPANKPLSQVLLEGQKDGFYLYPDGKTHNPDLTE

[5] = biological target: T5, GADS (Homo sapiens, UniProt O75791)
T5 construct: the DNA-tagged SH2 domain concentrations used in this study were <0.1 nM; made in house; host or cells: HEK293 (transient transfection; unpurified extract)
T5 sequence (O75791 58-149 limits assumed): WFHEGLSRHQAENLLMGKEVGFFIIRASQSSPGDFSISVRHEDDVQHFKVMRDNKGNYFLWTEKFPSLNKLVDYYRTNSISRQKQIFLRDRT

[6] = biological target: T6, SHIP1 (Homo sapiens, UniProt Q92835); conditions: for percent of DMSO vehicle control: primary screen, 10 μM
T6 construct: made in house; host or cells: HEK293 (transient transfection), unpurified extract
T6 sequence (Q92835 1-1189): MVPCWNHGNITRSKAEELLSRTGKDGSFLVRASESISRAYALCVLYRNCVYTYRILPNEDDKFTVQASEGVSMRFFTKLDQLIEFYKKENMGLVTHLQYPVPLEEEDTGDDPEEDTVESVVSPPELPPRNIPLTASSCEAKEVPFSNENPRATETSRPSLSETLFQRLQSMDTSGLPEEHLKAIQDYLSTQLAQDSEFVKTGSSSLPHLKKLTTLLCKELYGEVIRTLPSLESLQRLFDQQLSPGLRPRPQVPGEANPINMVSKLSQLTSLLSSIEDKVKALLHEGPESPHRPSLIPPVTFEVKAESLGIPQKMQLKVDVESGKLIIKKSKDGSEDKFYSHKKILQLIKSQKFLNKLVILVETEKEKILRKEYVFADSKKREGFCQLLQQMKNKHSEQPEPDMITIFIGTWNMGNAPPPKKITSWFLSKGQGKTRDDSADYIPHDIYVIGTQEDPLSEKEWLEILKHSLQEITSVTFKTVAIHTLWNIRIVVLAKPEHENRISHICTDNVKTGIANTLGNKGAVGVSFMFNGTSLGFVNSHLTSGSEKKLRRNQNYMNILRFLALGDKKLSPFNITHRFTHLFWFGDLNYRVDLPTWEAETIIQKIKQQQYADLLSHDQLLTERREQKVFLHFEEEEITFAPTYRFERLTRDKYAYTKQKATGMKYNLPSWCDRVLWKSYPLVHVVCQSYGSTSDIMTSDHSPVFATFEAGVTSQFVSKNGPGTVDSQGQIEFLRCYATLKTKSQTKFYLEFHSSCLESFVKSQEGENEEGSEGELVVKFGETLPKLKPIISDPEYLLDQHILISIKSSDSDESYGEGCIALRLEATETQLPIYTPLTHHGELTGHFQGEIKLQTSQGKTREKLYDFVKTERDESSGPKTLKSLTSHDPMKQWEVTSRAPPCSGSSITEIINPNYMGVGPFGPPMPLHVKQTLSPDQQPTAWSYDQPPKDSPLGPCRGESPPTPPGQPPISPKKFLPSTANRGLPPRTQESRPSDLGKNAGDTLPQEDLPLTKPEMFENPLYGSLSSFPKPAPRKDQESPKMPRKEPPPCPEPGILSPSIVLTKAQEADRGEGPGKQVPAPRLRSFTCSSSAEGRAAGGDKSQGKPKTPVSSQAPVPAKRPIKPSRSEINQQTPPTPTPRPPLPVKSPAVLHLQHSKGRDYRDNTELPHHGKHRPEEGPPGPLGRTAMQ

[7] = biological target: T7, STAT3(Y640F)-nonphosphorylated (Homo sapiens, UniProt P40763, Y640F)
T7 construct: made in house; host or cells: HEK293 (transient transfection), unpurified extract, dephosphorylated by endogenous phosphatases

[8] = biological target: T8, PTPN11(SH2dom.C-term.) (Homo sapiens, UniProt Q06124); conditions: primary screen, 10 μM
T8 construct: SH2dom.C-term. denotes SH2 domain closest to C-terminus of protein; made in house; host or cells: HEK293 (transient transfection, unpurified extract)
T8 sequence (Q06124 112-216 limits assumed): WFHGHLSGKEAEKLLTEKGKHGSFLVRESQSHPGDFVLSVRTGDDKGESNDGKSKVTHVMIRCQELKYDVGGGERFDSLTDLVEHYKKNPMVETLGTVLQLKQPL

[9] = biological target: T9, STAT3(N567K)-nonphosphorylated (Homo sapiens, UniProt P40763, N567K)
T9 construct: made in house; host or cells: HEK293 (transient transfection), unpurified extract, dephosphorylated by endogenous phosphatases

[10] = primary screen, 10 μM, read-out: percent of DMSO vehicle control
[11] = read-out: percent of DMSO vehicle control

T7 sequence (P40763 whole entry Y640F): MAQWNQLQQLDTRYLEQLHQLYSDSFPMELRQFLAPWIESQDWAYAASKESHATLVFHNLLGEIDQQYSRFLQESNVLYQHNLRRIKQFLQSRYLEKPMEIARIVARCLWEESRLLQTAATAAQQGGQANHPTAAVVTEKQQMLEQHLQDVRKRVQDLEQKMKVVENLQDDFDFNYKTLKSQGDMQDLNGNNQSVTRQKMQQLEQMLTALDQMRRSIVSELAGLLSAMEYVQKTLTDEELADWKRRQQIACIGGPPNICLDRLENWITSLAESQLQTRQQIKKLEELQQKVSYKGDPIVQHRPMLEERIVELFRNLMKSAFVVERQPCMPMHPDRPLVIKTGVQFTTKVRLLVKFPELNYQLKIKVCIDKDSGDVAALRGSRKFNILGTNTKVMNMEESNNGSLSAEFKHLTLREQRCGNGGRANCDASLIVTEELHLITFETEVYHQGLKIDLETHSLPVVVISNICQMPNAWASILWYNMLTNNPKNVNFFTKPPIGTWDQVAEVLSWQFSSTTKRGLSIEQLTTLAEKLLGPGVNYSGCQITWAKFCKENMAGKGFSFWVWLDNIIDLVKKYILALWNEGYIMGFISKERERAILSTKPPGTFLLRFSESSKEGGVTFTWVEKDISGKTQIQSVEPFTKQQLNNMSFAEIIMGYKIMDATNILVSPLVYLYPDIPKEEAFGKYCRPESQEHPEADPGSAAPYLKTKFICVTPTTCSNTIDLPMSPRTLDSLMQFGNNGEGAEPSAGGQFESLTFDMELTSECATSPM
T9 sequence (P40763 whole entry N567K): as the sequence (P40763 whole entry Y640F) above, with N567K, F640Y counted along it

Structure (SMILES) | percent of DMSO vehicle control [1] [%] | percent of DMSO vehicle control [6] [%] | percent of DMSO vehicle control [8] [%] | remaining activity at 10 µM [2] [%] | remaining activity at 10 µM [3] [%] | percent of DMSO vehicle control at 10 µM [4, 11] [%] | percent of DMSO vehicle control at 10 µM [5, 11] [%] | percent of DMSO vehicle control at 10 µM [7, 11] [%] | percent of DMSO vehicle control at 10 µM [9, 11] [%] | further results
O=C(CCl)Nc1cccc(CNC(=O)[C@H](Cc2ccc(OP(=O)(O)O)cc2)NC(=O)Cc2ccc(F)cc2)c1 [MN551] | 105.0 | 19.1 | 125.6 |  |  |  |  |  |  | remaining activity at 10 µM ([2]; primary screen, 10 μM): 109%; remaining activity at 10 µM ([3]; primary screen, 10 μM): 38.1 ± 7.5%; remaining activity at 10 µM [4, 10]: 43 ± 3.8%; remaining activity at 10 µM [5, 10]: 42.9 ± 0.8%; KD ([6]; dose-response): No Hit; remaining activity at 10 µM [7, 10]: 49 ± 5.7%; remaining activity at 10 µM [9, 10]: 86.5 ± 6.2%
CC[C@H](C)[C@H](NC(=O)[C@H](CCC(=O)O)NC(=O)[C@H](CCC(=O)O)NC(=O)[C@H](Cc1ccc(OP(=O)(O)O)cc1)NC(C)=O)C(=O)N[C@@H](CCC(=O)O)C(N)=O [Ac-pYEEIE-NH2] (Ac-[pY]EEIE-NH2) | 106.4 | 79.4±1.4 | 133.6 |  |  |  |  |  |  | percent of DMSO vehicle control ([2]; primary screen, 10 μM): 90.0±2.1%; percent of DMSO vehicle control ([3]; primary screen, 10 μM): 128.1%; percent of DMSO vehicle control ([4]; primary screen, 10 μM): 97.4±7.1%; percent of DMSO vehicle control ([5]; primary screen, 10 μM): 115.5%; percent of DMSO vehicle control ([7]; primary screen, 10 μM): 156.0%; percent of DMSO vehicle control ([9]; primary screen, 10 μM): 94.9±0.8%
CC(=O)N1CC[C@H]2CC[C@@H](C(=O)N[C@@H](CCC(N)=O)C(=O)NC(c3ccccc3)c3ccccc3)N2C(=O)[C@@H](NC(=O)c2cc3cc(C(F)(F)P(=O)(O)O)ccc3[nH]2)C1 [SI-109] | 121.2 | 101.8 | 136.9 | 131 | 103 | 106 | 276 | 5.8 ± 3.7 | 0.2 | Kd [7]: 78 ± 44 nM; Kd [9]: 12 ± 1.8 nM
CC(=O)N[C@@H](Cc1ccc(CP(=O)(O)O)cc1)C(=O)NC1(C(=O)N[C@@H](CC(N)=O)C(=O)NCCCc2c(O)ccc3ccccc23)CCCCC1 [CGP78850] | 119.6±4.5 | 77.7±20.9 | 127.5±18.4 | 77.8 ± 0.5 | 129 ± 11.7 | 128 ± 29.6 | 42 ± 2.5 | 118 ± 3.3 | 78.3 ± 2 | 
